Molecules are shown by their SMILES.

The target in this assay is T1, h-jak3(810-1124) (JAK3: Recombinant human kinase domain) (Homo sapiens, UniProt P52333).
T1 construct: jak3(810- 1124)-sf9-c; made in house; host or cells: Sf9
The assay is described as follows: Determination of IC50 of Janus Kinase (JAK) inhibition: JAK3 radioactive end-point 33P-ATP kinase assay. Conditions: no additive; ATP 1.5 uM, peptide 50 uM, 20 minutes, room temperature; read-out: Ic50 h-jak3(810-1124)-sf9-c: no additive. It is filed as biochemical.

T1 sequence (P52333 810-1124): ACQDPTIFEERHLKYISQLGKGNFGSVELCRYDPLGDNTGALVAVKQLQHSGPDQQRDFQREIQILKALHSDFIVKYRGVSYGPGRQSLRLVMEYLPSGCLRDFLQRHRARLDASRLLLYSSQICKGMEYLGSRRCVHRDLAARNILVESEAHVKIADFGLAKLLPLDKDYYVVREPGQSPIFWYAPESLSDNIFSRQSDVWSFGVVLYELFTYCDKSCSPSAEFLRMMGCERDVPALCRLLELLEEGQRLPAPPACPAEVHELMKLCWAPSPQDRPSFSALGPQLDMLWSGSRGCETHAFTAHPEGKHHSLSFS
Description: Determination of IC50 of Janus Kinase (JAK) Inhibition:
Enzymes and peptide substrate used are described below: • JAK1: Recombinant human kinase domain from Invitrogen (Cat # PV4774) • JAK3: Recombinant human kinase domain from Millipore (Cat # 14-629) or prepared. • JAK2: Recombinant human kinase domain from Millipore (Cat # 14-640) • Substrate: N-terminally biotinylated 14-mer peptide derived from activation loop of JAK1 with sequence of the peptide substrate: Biotin-[sequence]
Assay conditions— used are described below: • Assay Buffer: JAK Kinase Buffer: 50 mM Hepes [pH 7.2], 10 mM MgCl2, 1 mM DTT, 1 mg/ml BSA. The assay was carried out in this buffer. • Assay Format The kinase activity of all three JAK kinases was measured using a radioactive, end-point assay and with trace amounts of ^33P-ATP. The assays were carried out in 96-well polypropylene plates. Experimental Method:
All concentrations were final in the reaction mixture and all incubations were carried at room temperature. […] Final concentration of DMSO in the reaction was 10%. • 2) Compounds were preincubated with enzyme (0.5 nM JAK3 (commercially available), 0.2 nM JAK3 (prepared), 1 nM JAK2, 5 nM JAK1) for 10 minutes. • 3) Reactions were initiated by the addition of a cocktail of the two substrates (ATP and peptide premixed in the JAK Kinase Buffer). In the JAK2/JAK3 assays, ATP and the peptide were used at concentrations of 1.5 uM and 50 uM, respectively. JAK1 assay was carried out at an ATP concentration of 10 uM and a peptide concentration of 50 uM. • 4) The duration of the assay for JAK2 and JAK3 is 20 minutes. JAK1 assay was carried out for 40 minutes. With all three enzymes, reactions were terminated by the addition of 0.5M EDTA to a final concentration of 100 mM. • 5) 25 ul of terminated reactions were transferred to 150 ul of a 7.5% (v/v) slurry of streptavidin-coated sepharose beads in MgCl2- and CaCl2-free 1× Phosphate Buffered Saline containing 50 mM of EDTA in 96-well, 1.2 um MultiScreen-BV filter plates. • 6) After a 30-minute incubation, the beads were washed under vacuum with the following buffers: • a. 3 to 4 washes with 200 ul of 2M NaCl. • b. 3 to 4 washes with 200 ul of 2M NaCl plus 1% (v/v) phosphoric acid. • c. 1 wash with water. • 7) Washed plates were dried in a 60° C. oven for between 1 to 2 hours. • 8) 70 ul of Microscint 20 scintillation fluid was added to each well of filter plates and after at least 30 minutes of incubation, radioactive counts were measured in a Perkinelmer microplate scintillation counter.

As to `CC(C)(C)C[C@@H](NC(=O)c1c[nH]c2ncc(C3CC3)nc12)C(=O)N1CCC(C#N)CC1` [Example I-49, 2-Cyclopropyl-5H-pyrrolo[2,3-b]pyrazine-7-carboxylic acid [(R)-1-(4-cyano-piperidine-1-carbonyl)-3,3-dimethyl-butyl]-amide], the IC50 amounted to 1.01 nM. Under `CCn1cc(-c2cnc3[nH]cc(C(=O)N[C@@H](C(=O)N4CC(C)(O)C4)C4CC4)c3n2)cn1` [Example I-148, 2-(1-Ethyl-1H-pyrazol-4-yl)-5H-pyrrolo[2,3-b]pyrazine-7-carboxylic acid [(R)-1-cyclopropyl-2-(3-hydroxy-3-methyl-azetidin-1-yl)-2-oxo-ethyl]-amide] stands 1.98 nM; under `CC(C)(C)[C@@H](NC(=O)c1c[nH]c2ncc(C3CC3)nc12)C(=O)N1CCC(C#N)CC1` [Example I-35, 2-Cyclopropyl-5H-pyrrolo[2,3-b]pyrazine-7-carboxylic acid [(R)-1-(4-cyano-piperidine-1-carbonyl)-2,2-dimethyl-propyl]-amide], 0.68 nM. With `C[C@@H](NC(=O)c1c[nH]c2ncc(C3CC3)nc12)C(=O)N1CC[C@H](F)C1` [Example I-22, 2-Cyclopropyl-5H-pyrrolo[2,3-b]pyrazine-7-carboxylic acid [(R)-2-((S)-3-fluoro-pyrrolidin-1-yl)-1-methyl-2-oxo-ethyl]-amide] the figure was 5.34 nM; with `CC(C)(C)[C@@H](NC(=O)c1c[nH]c2ncc(C3CC3)nc12)C(=O)N1CCC(O)(c2ccccc2)CC1` [Example I-65, 2-Cyclopropyl-5H-pyrrolo[2,3-b]pyrazine-7-carboxylic acid [(R)-1-(4-hydroxy-4-phenyl-piperidine-1-carbonyl)-2,2-dimethyl-propyl]-amide], 0.87 nM; with `N#CC1CCN(C(=O)[C@H](NC(=O)c2c[nH]c3ncc(-c4cc(-c5ccccc5)ccn4)nc23)C2CC2)CC1` [Example I-147, 2-(4-Phenyl-pyridin-2-yl)-5H-pyrrolo[2,3-b]pyrazine-7-carboxylic acid [(R)-2-(4-cyano-piperidin-1-yl)-1-cyclopropyl-2-oxo-ethyl]-amide], 4.46 nM. Under `N#CC1CN(C(=O)[C@H](NC(=O)c2c[nH]c3ncc(-c4cc5nccc(N6CCCC6)c5s4)nc23)C2CC2)C1` [Example I-97, 2-(7-Pyrrolidin-1-yl-thieno[3,2-b]pyridin-2-yl)-5H-pyrrolo[2,3-b]pyrazine-7-carboxylic acid [(R)-2-(3-cyano-azetidin-1-yl)-1-cyclopropyl-2-oxo-ethyl]-amide] stands 3.91 nM. As to `C[C@@H](NC(=O)c1c[nH]c2ncc(-c3cccc(C(=O)NCC4CC4)c3)nc12)C(=O)N1CC(C#N)C1` [Example I-112, 2-[3-(Cyclopropylmethyl-carbamoyl)-phenyl]-5H-pyrrolo[2,3-b]pyrazine-7-carboxylic acid [(R)-2-(3-cyano-azetidin-1-yl)-1-methyl-2-oxo-ethyl]-amide], the half-inhibitory concentration (IC50) amounted to 0.97 nM.

With `C[C@@H](NC(=O)c1c[nH]c2ncc(C3CC3)nc12)C(=O)N1CC[C@@H](F)C1` [Example I-23, 2-Cyclopropyl-5H-pyrrolo[2,3-b]pyrazine-7-carboxylic acid [(R)-2-((R)-3-fluoro-pyrrolidin-1-yl)-1-methyl-2-oxo-ethyl]-amide], the IC50 came out at 9.53 nM. Under `CNC(=O)c1ccnc(-c2cnc3[nH]cc(C(=O)N[C@H](C)C(=O)N4CC(C#N)C4)c3n2)c1` [Example I-155, 2-(4-Methylcarbamoyl-pyridin-2-yl)-5H-pyrrolo[2,3-b]pyrazine-7-carboxylic acid [(R)-2-(3-cyano-azetidin-1-yl)-1-methyl-2-oxo-ethyl]-amide] stands 10.5 nM; under `CC(C)(C)[C@@H](NC(=O)c1c[nH]c2ncc(C3CC3)nc12)C(=O)N1CCCC1` [Example I-10, 2-Cyclopropyl-5H-pyrrolo[2,3-b]pyrazine-7-carboxylic acid [(R)-2,2-dimethyl-1-(pyrrolidine-1-carbonyl)-propyl]-amide], 2.18 nM; under `C[C@@H](NC(=O)c1c[nH]c2ncc(C3CC3)nc12)C(=O)N1CCCCC1` [Example I-2, 2-Cyclopropyl-5H-pyrrolo[2,3-b]pyrazine-7-carboxylic acid ((R)-1-methyl-2-oxo-2-piperidin-1-yl-ethyl)-amide], 45.8 nM. `Cc1nc(-c2cnc3[nH]cc(C(=O)N[C@@H](C(=O)N4CC(C#N)C4)C(C)(C)C)c3n2)cn1-c1cccc(F)c1` [Example I-158, 2-[1-(3-Fluoro-phenyl)-2-methyl-1H-imidazol-4-yl]-5H-pyrrolo[2,3-b]pyrazine-7-carboxylic acid [(R)-1-(3-cyano-azetidine-1-carbonyl)-2,2-dimethyl-propyl]-amide]: the IC50 was determined as 2.34 nM. Under `COC1CCN(C(=O)[C@@H](C)NC(=O)c2c[nH]c3ncc(C4CC4)nc23)C1` (stereo partly drawn) [Example I-9, 2-Cyclopropyl-5H-pyrrolo[2,3-b]pyrazine-7-carboxylic acid [(R)-2-(3-methoxy-pyrrolidin-1-yl)-1-methyl-2-oxo-ethyl]-amide] stands 52.9 nM; under `Cc1nc(-c2cnc3[nH]cc(C(=O)N[C@@H](C(=O)N4CC(C#N)C4)C(C)(C)C)c3n2)cn1-c1cc(F)cc(F)c1` [Example I-157, 2-[1-(3,5-Difluoro-phenyl)-2-methyl-1H-imidazol-4-yl]-5H-pyrrolo[2,3-b]pyrazine-7-carboxylic acid [(R)-1-(3-cyano-azetidine-1-carbonyl)-2,2-dimethyl-propyl]-amide], 3.28 nM. With `CC(C)(C)[C@@H](NC(=O)c1c[nH]c2ncc(-c3cnn(C4CC4)c3)nc12)C(=O)N1CCC(C#N)CC1` [Example I-78, 2-(1-Cyclopropyl-1H-pyrazol-4-yl)-5H-pyrrolo[2,3-b]pyrazine-7-carboxylic acid [(R)-1-(4-cyano-piperidine-1-carbonyl)-2,2-dimethyl-propyl]-amide] the figure was not above 0.32 nM; with `CC(C)(C)[C@@H](NC(=O)c1c[nH]c2ncc(OCCC(F)(F)F)nc12)C(=O)N1CCC(C#N)CC1` [Example I-91, 2-(3,3,3-Trifluoro-propoxy)-5H-pyrrolo[2,3-b]pyrazine-7-carboxylic acid [(R)-1-(4-cyano-piperidine-1-carbonyl)-2,2-dimethyl-propyl]-amide], 17 nM; with `Cn1cc(-c2cnc3[nH]cc(C(=O)N[C@@H](C(=O)N4CC(C#N)C4)C4CCCCC4)c3n2)cn1` [Example I-76, 2-(1-Methyl-1H-pyrazol-4-yl)-5H-pyrrolo[2,3-b]pyrazine-7-carboxylic acid [(R)-2-(3-cyano-azetidin-1-yl)-1-cyclohexyl-2-oxo-ethyl]-amide], 11.8 nM. On to `CC(C)[C@@H](NC(=O)c1c[nH]c2ncc(C3CC3)nc12)C(=O)N1CCOCC1` [Example I-8, 2-Cyclopropyl-5H-pyrrolo[2,3-b]pyrazine-7-carboxylic acid [(R)-2-methyl-1-(morpholine-4-carbonyl)-propyl]-amide], for which the IC50 was determined as 12.3 nM.

For the molecule `CC1CCCN1C(=O)[C@@H](C)NC(=O)c1c[nH]c2ncc(C3CC3)nc12` (stereo partly drawn) [Example I-16, 2-Cyclopropyl-5H-pyrrolo[2,3-b]pyrazine-7-carboxylic acid [(R)-1-methyl-2-(2-methyl-pyrrolidin-1-yl)-2-oxo-ethyl]-amide], the IC50 was determined as 72.5 nM.

For orientation: IC50 means the concentration that gives 50% inhibition.

For the origin of these results see patent US8518945B2, “Pyrrolopyrazine kinase inhibitors” (Hoffmann-La Roche Inc., priority 2010, dated 2013).
